Values of other authors in patent publication US10300299B2, “Advanced methods and systems for treating cell proliferation disorders” (priority 2008, dated 2019).

Columns and labels:
rapidly dividing tissue = settings: in vivo
[1] = not given; remark: listed apart in the source
[2] = not given; remark: listed apart in the source

Molecule: Oc1cccc(-c2c3nc(c(-c4cccc(O)c4)c4ccc([nH]4)c(-c4cccc(O)c4)c4nc(c(-c5cccc(O)c5)c5ccc2[nH]5)CC4)C=C3)c1 [Foscan, Tetra (m-hydroxyphenyl) chlorin]
- duration of skin photosensitivity: approximately 2 weeks
- Length of photosensitization (Table 3, known photosensitizers): 2 weeks

Molecule: C/C1=C2/[N-][C@H]([C@H](CC(N)=O)[C@@]2(C)CCC(=O)NC[C@@H](C)OP(=O)([O-])O[C@H]2[C@@H](O)[C@@H](n3cnc4cc(C)c(C)cc43)O[C@@H]2CO)[C@]2(C)N=C(/C(C)=C3N=C(/C=C4N=C1[C@@H](CCC(N)=O)C\4(C)C)[C@@H](CCC(N)=O)[C@]\3(C)CC(N)=O)[C@@H](CCC(N)=O)[C@]2(C)CC(N)=O.[CH3-].[Co+3] [methylcobalamin]
- uptake in rapidly dividing tissue (rapidly dividing tissue): increased uptake

Molecule: Cobalt-57-cyanocobalamin
- uptake in rapidly dividing tissue (rapidly dividing tissue): increased uptake

Molecule: Vitamin B12
- water solubility [1]: water soluble
- excretion ([2]; in excess): excreted by gloinerular filtration
- toxicity ([2]; in vivo): no known toxicity
